A short description of data set [1]: Dog bioavailability study (PK after single oral administration of capsules). Particulars: for Cmax / Exposure AUC / Tmax: listed as HCl•trihydrate. It counts as in vivo, beagle dogs. The procedure:
The dogs are not fasted before dosing, and have free access to water. Every day of the treatment, a half food ration is provided after the T0 blood sampling, 8 to 17 min before treatment, and the second half ration is given just after dosing or 1 h after treatment for period 2. A 3 days washout period is ensured between treatments.
The capsule composition is described in the table below.
The capsules are administered orally with water (5-10 mL), to provide good oesophageal transit. Each animal is checked at least once daily.
Blood is collected from the jugular vein into lithium heparinised tubes at T0 (before food administration) and then at 1 h, 2 h, 4 h, 6 h, 8 h, 10 h, and 24 h post treatment.
Plasma is then obtained from blood by centrifugation (2500 g for 10 min at 4° C.), and stored at −20° C. until analysis.
After vortex mixing and centrifugation at 4° C., the supernatants are diluted with a 0.5 volume of HPLC grade water in a midi-eppendorf 96-well plate. The plate is sealed and shaken to ensure sample homogeneity prior to analysis.
Pharmacokinetic analysis is performed using WinNonlin™ software version 5.3, using concentrations from individual animals. Non-compartmental analysis is applied to determine the PK parameters (Cmax, Tmax, AUC0-last, t1/2, etc . . . )
Concentrations below the limit of detection are set to zero for descriptive statistics and PK parameter calculations.

The nature of data set [2]: Accelerated stability study of Compound 1.HCl.3H2O (FT-IR, DSC, XRPD). It counts as physicochemical. The following applies: 3 months. The source says: Samples of [Compound 1. HCl.3H2O] are stored under conditions to evaluate chemical stability and physical stability as described in the table below: [table] Samples are taken at T0, then every month up to 3 months, and analysed by FT-IR, DSC, and XRPD.

Data set [3] in a line: Thermodynamic aqueous solubility by HPLC. Type of data set: physicochemical. Particulars: water. The procedure: (§1) The mixture is cooled to 25° C. at 1° C./min and stirred at 25° C. for 22 h. The solid is isolated by vacuum filtration and dried under suction.
Data set [4] in a line: Salt study: XRPD analysis / hygroscopicity of the hydrochloric acid salt. It counts as physicochemical. Particulars: salt containing 4-5% water. The procedure: as §1
Setting [5] is: dogs, oral capsules, on average and at the 2 capsule strengths.
The mark [6] stands for this setting: male beagle dogs, single oral administration, capsules, dose 25 mg/kg.
[7] abbreviates: male beagle dogs, single oral administration, capsules, dose 100 mg/kg.

Where a name gives a salt, the structure may show the parent alone.

This note sets out measurements from US10493158B2, “Pharmaceutical compositions for the treatment of inflammatory disorders” (GALAPAGOS NV, priority 2014, dated 2019).

For orientation: half-life means the time needed for the level to fall by half in the phase considered. Lower therefore signals rapid decline. A word on the Cmax: it is the peak of the concentration-time curve. In general, Tmax refers to the time from dosing to the highest level. `O=C(Nc1nc2cccc(-c3ccc(CN4CCS(=O)(=O)CC4)cc3)n2n1)C1CC1` [Compound 1.HCl.3H2O, cyclopropanecarboxylic acid {5-[4-(1,1-dioxo-thiomorpholin-4-ylmethyl)-phenyl]-[1,2,4]triazolo[1,5-a]pyridin-2-yl}-amide]: the half-life in data set [1] (dog, plasma, male beagle dogs, single oral administration, one range printed across both forms and both doses) was in the range of 4.43 to 8.96 h. In addition, in data set [1] (setting [5]), the “in vivo exposure compared with Compound 1 (free base)” value was “improved exposure” and the “rate of absorption compared with Compound 1 (free base)” value is given as “more rapidly absorbed”. For the same compound, in data set [1] (setting [6]), the Cmax was determined as 3050 ng/mL, the “Exposure AUC” value was found to be 33600 ng·h/mL and the Tmax was found to be 2.0 h. Further, in data set [1] (setting [7]), the Cmax came out at 2630 ng/mL, the “Exposure AUC” value worked out at 21700 ng·h/mL and the Tmax was determined as 2.0 h. The “chemical and physical stability” value in data set [2] (25° C./60% RH open, 40° C./75% RH open, 50° C. closed, RT/<5%, 56%, 75% RH open) is listed as “stable under all conditions”. The change in crystallinity result in data set [2] (all storage conditions of Table VI) was “no change in crystallinity”.

Broadly, the solubility is how much of the substance goes into solution per volume. High values mean much dissolved substance, low ones little dissolved substance. For the compound `O=C(Nc1nc2cccc(-c3ccc(CN4CCS(=O)(=O)CC4)cc3)n2n1)C1CC1` [hydrochloric acid salt of Compound 1, cyclopropanecarboxylic acid {5-[4-(1,1-dioxo-thiomorpholin-4-ylmethyl)-phenyl]-[1,2,4]triazolo[1,5-a]pyridin-2-yl}-amide], the solubility in data set [3] turned out to be 1900 µg/mL. Also, the “hygroscopicity of the salt” value in data set [4] is “non-hygroscopic”.

By AUC is commonly meant concentration integrated over time. Consider `O=C(Nc1nc2cccc(-c3ccc(CN4CCS(=O)(=O)CC4)cc3)n2n1)C1CC1` [Compound 1, cyclopropanecarboxylic acid {5-[4-(1,1-dioxo-thiomorpholin-4-ylmethyl)-phenyl]-[1,2,4]triazolo[1,5-a]pyridin-2-yl}-amide], for which, in data set [1] (male, beagle, dog, plasma, po, 100 mg/kg, male beagle dogs, single oral administration, capsules, dose 100 mg/kg, read-out: Exposure AUC), the AUC was 11100 ng·h/mL.
